Conditions: 101.3 kPa, Liquid

CCCCn1cc[n+](C)c1.N#CN=C=[N-] [1-butyl-3-methylimidazolium dicyanamide]
Conditions	mass density [kg/m3]	viscosity [mPa·s]
278.15 K	1075.8	82.07
283.15 K	1072.6	62.54
288.15 K	1069.4	48.93
293.15 K	1066.2	39.14
298.15 K	1063.1	31.8
303.15 K	1059.9	26.29
308.15 K	1056.8	21.79
313.15 K	1053.7	18.5
318.15 K	1050.6	15.88
323.15 K	1047.5	13.78
328.15 K	1044.4	12.06
333.15 K	1041.3	10.65
338.15 K	1038.2	9.475
343.15 K	1035.1	8.485
348.15 K	1032.1	7.643
353.15 K	1029	6.923
358.15 K	1025.8	6.304
363.15 K	1022.7	5.77

From the NIST ThermoML archive (doi:10.1021/je900632q)
